From ChEMBL document CHEMBL1201862, “PubChem BioAssay data set” (2004) come the findings set out here.

Assay [1] deals with 5-hydroxytryptamine receptor 1E (Homo sapiens, UniProt P28566). In words: Counterscreen assay for S1P3 antagonists: Dose response cell-based high throughput screening assay to identify antagonists of the 5-Hydroxytryptamine Receptor Subtype 1E (5HT1E). [Related pubchem assays: 1429, 485 ]. Format: functional.
Assay [2] deals with Sphingosine 1-phosphate receptor 3 (Homo sapiens, UniProt Q99500). In words: Dose response cell-based high throughput screening assay for antagonists of the Sphingosine 1-Phosphate Receptor 3 (S1P3). [Related pubchem assays: 1429, 485 ]. Type of assay: functional.
For the next assay, the target named is T1, Bcl-2-like protein 10 (Homo sapiens, UniProt Q9HD36).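 Also: fluorescence polarization from a fluorescein-labelled TR3 peptide binding purified Bcl-B.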
T1 sequence (Q9HD36 whole entry): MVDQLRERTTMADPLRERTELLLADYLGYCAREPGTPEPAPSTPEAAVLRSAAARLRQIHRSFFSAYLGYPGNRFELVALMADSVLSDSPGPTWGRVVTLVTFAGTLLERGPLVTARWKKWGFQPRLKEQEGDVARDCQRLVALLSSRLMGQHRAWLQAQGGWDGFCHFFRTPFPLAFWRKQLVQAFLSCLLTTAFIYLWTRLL
As to the kind of experiment: Bcl-B/TR3 peptide binding disruption – biochemical, fluorescence polarization, FITC-TR3 peptide, selectivity assay for Bfl-1 inhibitor project, primary screen (AID 748). (Polarisation of emitted light reports the rotation of a fluorescent probe.)

In assay [3] the target is T2, Sentrin-specific protease 8 (Homo sapiens, UniProt Q96LD8).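 Also: luminescence read-out of SENP8 inhibition, dose-response confirmation following an ultra-high-throughput screen.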
T2 sequence (Q96LD8 whole entry): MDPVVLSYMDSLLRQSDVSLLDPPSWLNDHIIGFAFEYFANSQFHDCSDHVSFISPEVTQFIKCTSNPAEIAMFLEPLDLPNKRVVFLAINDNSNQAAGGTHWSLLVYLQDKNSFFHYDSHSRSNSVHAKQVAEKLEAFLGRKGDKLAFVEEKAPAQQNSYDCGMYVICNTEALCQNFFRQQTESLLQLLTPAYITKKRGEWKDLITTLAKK
Type of assay: functional.

For a further assay, the target named is T3, Caspase-3 (Homo sapiens, UniProt P42574).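 Also: Dose-response selectivity test against caspase-3 for candidate inhibitors of sentrin-specific proteases (SENPs).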
T3 sequence (P42574 whole entry): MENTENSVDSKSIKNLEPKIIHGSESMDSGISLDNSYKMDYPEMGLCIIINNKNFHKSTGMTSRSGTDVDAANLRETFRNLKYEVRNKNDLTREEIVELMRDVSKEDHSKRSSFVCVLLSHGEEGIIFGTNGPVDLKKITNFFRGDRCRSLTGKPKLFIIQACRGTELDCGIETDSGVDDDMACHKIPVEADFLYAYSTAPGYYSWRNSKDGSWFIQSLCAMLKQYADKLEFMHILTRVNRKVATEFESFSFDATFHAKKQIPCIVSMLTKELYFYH
Type of assay: functional.

In assay [4] the target is T4, Sentrin-specific protease 6 (Homo sapiens, UniProt Q9GZR1).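 Also: Luminescence-based dose-response confirmatory assay of SENP6 inhibition, following up an ultra-high-throughput screen.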
T4 sequence (Q9GZR1 whole entry): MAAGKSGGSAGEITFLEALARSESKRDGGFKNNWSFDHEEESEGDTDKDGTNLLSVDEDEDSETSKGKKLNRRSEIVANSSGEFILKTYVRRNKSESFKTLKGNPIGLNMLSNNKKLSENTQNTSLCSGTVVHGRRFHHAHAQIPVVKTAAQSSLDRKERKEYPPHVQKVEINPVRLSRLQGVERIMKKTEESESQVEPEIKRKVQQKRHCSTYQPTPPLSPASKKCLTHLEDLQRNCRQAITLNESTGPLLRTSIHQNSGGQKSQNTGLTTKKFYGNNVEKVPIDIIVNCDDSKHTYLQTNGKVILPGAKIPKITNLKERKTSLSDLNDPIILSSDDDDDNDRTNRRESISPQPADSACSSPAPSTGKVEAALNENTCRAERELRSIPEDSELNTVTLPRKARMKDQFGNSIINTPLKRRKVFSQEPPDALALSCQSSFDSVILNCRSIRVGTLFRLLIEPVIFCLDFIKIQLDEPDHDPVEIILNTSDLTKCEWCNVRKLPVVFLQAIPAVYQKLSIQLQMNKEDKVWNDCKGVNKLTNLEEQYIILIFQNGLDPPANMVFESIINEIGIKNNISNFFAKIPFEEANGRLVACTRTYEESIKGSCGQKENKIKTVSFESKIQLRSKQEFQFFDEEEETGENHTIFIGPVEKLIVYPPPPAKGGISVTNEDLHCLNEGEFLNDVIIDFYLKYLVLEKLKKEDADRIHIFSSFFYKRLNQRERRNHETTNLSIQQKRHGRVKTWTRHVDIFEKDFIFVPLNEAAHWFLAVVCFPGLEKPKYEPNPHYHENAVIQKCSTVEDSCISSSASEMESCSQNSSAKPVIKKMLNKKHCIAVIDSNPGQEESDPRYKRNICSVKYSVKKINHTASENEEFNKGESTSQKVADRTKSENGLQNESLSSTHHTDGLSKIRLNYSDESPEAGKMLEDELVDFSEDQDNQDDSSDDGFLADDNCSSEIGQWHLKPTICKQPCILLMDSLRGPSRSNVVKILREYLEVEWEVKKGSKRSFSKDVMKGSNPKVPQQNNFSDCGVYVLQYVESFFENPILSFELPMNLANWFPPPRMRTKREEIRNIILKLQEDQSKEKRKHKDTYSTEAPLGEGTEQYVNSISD
Format: functional.

Another assay concerns the target Genome polyprotein (dengue virus type 2, UniProt P29990). As to the kind of experiment: flavivirus cap methylation enzyme inhibition – biochemical, confirmation dose response, primary screen (AID 588689). Type of assay: functional.
Assay [5] can be described thus: viability loss in THP-1 monocytes – THP-1 cells, cytotoxicity control for Vif-APOBEC3G degradation inhibitor project, dose response (AID 1117359). Format: functional. As to conditions: THP-1.
In assay [6] the target is T5, Sentrin-specific protease 7 (Homo sapiens, UniProt Q9BQF6).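 Also: Luminescence-based dose-response confirmation of ultra-high-throughput screening hits, measuring inhibition of SENP7.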
T5 sequence (Q9BQF6 whole entry): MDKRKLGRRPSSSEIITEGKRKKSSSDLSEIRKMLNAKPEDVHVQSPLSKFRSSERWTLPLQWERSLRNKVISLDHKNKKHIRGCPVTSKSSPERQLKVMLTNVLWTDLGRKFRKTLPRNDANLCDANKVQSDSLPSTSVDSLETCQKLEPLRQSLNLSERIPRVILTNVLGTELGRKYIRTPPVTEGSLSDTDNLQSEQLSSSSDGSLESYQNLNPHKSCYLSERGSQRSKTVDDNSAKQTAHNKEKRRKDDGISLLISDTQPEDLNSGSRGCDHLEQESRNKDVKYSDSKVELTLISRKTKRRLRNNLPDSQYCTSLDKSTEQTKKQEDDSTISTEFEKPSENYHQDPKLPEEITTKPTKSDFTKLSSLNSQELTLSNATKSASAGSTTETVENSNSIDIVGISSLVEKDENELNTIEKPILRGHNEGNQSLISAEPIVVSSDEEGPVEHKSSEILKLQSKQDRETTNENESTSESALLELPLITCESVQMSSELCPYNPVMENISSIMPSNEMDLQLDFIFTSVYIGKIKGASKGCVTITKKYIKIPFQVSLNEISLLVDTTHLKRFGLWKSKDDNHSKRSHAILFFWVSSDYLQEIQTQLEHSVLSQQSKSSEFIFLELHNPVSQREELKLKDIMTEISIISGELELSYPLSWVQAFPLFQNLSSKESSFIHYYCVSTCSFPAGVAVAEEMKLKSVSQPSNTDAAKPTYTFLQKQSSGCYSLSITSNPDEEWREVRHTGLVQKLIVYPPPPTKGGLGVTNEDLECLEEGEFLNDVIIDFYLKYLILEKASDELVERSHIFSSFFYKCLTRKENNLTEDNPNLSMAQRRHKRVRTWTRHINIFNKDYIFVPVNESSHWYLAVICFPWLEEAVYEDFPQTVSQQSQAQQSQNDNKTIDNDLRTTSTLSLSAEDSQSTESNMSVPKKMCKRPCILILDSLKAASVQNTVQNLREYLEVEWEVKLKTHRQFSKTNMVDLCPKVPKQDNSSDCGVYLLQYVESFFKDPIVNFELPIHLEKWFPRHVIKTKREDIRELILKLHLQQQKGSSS
Format: functional.

In assay [7] the target is T6, Estrogen receptor beta (Homo sapiens, UniProt Q92731). In words: blockers of SRC-3 recruitment to ERβ – biochemical, ELISA, streptavidin-HRP readout, orthogonal assay, confirmation (AID 1060). Background: ELISA stands for enzyme-linked immunosorbent assay.
In assay [8] the target is T6, Estrogen receptor beta.
For assay [9], the target named is Glutathione-S-transferase (Schistosoma japonicum, UniProt Q26513). As to the kind of experiment: GST-antibody interaction or FRET quenching – biochemical, TR-FRET, artefact control for Vif-APOBEC3G degradation inhibitor project, dose response (AID 1117362). Type of assay: functional. On the technique in general: TR-FRET usually uses a lanthanide donor and a delayed reading to cut background.

The next assay has as its system Vero. In words: viability of Vero cells under compound – cytotoxicity control for flavivirus capping enzyme inhibitors (AID 588742). Format: functional. The conditions noted are these: Chlorocebus sabaeus.
A short description of assay [10]: NIH3T3 cell viability loss – ATP luminescence, mouse fibroblasts, counter-screen, dose response (AID 2010).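 Also: cells exposed to compound for about 90 hours before reading.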 Format: functional, cell-based.
For assay [11], the target named is Sphingosine 1-phosphate receptor 4 (Homo sapiens, UniProt O95977). In words: Fluorescence dose response cell-based high throughput screening assay for antagonists of the Sphingosine 1-Phosphate Receptor 4 (S1P4). [Related pubchem assays: 1524 (Confirmation in triplicates.), 1510 (Primary screen.)]. Format: functional.
The nature of assay [12]: HPDE-C7 pancreatic duct cell viability loss – fluorescence, HTS (AID 430). The conditions noted are these: Homo sapiens. Format: functional, cell-based.
A short description of assay [13]: viability loss of HPDE-C7K cells – cell-based, fluorescence, HTS, primary screen (AID 431). Format: functional. The conditions noted are these: Homo sapiens.
Assay [14] can be described thus: NIH-3T3 fibroblast cytotoxicity, dose response, cytotoxicity control, cell-based, fluorescence, Alamar Blue, secondary assay (AID 2327).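 Also: NIH-3T3 mouse fibroblasts cultured with fluconazole at 8 µg/mL.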 Type of assay: functional.
A short description of assay [15]: Trypanosoma cruzi growth suppression in host cells – NIH3T3 host cells, beta-gal luminescence, confirmation (AID 2044).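 Also: intracellular parasites grown in NIH/3T3 mouse fibroblasts as host cells; luminescent beta-galactosidase reporter signal from transgenic T. cruzi replicating inside host cells; inhibitors lower the luminescence signal.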 Format: functional, cell-based.
Assay [16] in a line: fluconazole-exposed Candida albicans growth modulators – fluorescence, retest, confirmation (AID 2467). Type of assay: functional, cell-based.
Assay [17] deals with Sphingosine 1-phosphate receptor 1 (Homo sapiens, UniProt P21453). Format: functional.
A short description of assay [18]: antiviral protection against BTV-induced cell death – arbovirus, BSR cells, confirmation (AID 1250).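 Also: protection from viral cytopathic effect measured as cell viability by ATP luminescence.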 Format: functional.
For assay [19], the target named is Sphingosine 1-phosphate receptor 2 (Homo sapiens, UniProt O95136). In words: Dose Response Cell Based Assay for Agonists of the S1P2 Receptor of Purchased Analogues. [Related pubchem assays: 729, 843, 854, 736 ]. Type of assay: functional.
For assay [20], the target named is Neuropeptide Y receptor type 1 (Homo sapiens, UniProt P25929). Format: functional.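 Also: HEK293 cells with a CNG channel challenged with NPY then isoproterenol; potency as antagonist that reverses NPY suppression of cAMP signal.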
Assay [21] has as its target Neuropeptide Y receptor type 2 (Homo sapiens, UniProt P49146). Format: functional, cell-based.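 Also: HEK293 cells expressing the receptor and a CNG channel; stimulus was NPY near EC95 followed by isoproterenol to raise cAMP; antagonist potency measured as restoring cAMP signal that NPY suppresses.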
The target of another assay is T7, Estrogen receptor (Homo sapiens, UniProt P03372).
T7 sequence (P03372 whole entry): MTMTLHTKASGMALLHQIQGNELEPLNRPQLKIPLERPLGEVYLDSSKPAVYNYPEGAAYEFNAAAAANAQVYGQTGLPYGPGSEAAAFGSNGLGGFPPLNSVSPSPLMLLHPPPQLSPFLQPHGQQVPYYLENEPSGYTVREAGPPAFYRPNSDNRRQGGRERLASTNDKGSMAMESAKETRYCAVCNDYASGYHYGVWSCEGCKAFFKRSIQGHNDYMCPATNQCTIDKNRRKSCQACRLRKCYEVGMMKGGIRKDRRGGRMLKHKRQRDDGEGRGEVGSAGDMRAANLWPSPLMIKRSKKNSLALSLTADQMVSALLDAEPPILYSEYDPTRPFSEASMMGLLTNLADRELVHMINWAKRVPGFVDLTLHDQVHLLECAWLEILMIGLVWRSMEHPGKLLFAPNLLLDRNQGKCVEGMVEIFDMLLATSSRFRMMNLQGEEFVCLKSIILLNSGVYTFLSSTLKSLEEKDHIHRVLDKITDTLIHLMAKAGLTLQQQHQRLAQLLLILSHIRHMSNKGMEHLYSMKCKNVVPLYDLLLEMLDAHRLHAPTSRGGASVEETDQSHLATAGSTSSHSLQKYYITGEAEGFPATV
As to the kind of experiment: ERα coactivator recruitment enhancers – biochemical, TR-FRET, ERα LBD, dose response (AID 737).

Activity calls are given as the source filed them. Where only a bound is given, the exact number is not on record here.

T6 sequence (Q92731 whole entry): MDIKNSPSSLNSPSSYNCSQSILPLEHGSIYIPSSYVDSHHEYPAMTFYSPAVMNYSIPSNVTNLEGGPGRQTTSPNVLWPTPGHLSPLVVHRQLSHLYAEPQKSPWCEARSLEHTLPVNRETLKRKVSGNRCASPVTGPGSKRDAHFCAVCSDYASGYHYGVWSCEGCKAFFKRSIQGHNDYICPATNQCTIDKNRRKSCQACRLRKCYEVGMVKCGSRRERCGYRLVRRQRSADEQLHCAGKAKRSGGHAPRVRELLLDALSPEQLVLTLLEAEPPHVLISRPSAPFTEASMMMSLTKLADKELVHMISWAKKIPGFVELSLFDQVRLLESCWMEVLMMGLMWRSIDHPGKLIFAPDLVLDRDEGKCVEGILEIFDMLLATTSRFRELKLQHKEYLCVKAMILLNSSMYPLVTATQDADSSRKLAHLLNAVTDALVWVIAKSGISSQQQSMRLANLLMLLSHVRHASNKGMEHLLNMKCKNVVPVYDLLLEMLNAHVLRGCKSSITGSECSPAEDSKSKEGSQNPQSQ
Chain of Sphingosine 1-phosphate receptor 4 (O95977 whole entry): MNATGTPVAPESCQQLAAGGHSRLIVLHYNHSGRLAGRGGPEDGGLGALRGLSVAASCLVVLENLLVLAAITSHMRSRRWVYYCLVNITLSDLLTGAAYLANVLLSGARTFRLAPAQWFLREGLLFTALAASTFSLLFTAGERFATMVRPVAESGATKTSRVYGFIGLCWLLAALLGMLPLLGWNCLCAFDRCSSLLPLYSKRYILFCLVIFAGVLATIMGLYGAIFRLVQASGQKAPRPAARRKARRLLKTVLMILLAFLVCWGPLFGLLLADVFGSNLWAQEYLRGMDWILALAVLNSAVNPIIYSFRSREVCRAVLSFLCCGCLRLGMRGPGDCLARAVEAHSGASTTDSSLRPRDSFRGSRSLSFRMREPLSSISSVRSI
Chain of Glutathione-S-transferase (Q26513 whole entry): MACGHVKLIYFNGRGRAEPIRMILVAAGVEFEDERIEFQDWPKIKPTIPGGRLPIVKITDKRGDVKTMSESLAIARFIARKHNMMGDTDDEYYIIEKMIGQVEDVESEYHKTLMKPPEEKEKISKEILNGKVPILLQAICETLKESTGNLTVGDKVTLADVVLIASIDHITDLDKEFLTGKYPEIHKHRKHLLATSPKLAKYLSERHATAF
Chain of Genome polyprotein (P29990 2492-3391 limits assumed): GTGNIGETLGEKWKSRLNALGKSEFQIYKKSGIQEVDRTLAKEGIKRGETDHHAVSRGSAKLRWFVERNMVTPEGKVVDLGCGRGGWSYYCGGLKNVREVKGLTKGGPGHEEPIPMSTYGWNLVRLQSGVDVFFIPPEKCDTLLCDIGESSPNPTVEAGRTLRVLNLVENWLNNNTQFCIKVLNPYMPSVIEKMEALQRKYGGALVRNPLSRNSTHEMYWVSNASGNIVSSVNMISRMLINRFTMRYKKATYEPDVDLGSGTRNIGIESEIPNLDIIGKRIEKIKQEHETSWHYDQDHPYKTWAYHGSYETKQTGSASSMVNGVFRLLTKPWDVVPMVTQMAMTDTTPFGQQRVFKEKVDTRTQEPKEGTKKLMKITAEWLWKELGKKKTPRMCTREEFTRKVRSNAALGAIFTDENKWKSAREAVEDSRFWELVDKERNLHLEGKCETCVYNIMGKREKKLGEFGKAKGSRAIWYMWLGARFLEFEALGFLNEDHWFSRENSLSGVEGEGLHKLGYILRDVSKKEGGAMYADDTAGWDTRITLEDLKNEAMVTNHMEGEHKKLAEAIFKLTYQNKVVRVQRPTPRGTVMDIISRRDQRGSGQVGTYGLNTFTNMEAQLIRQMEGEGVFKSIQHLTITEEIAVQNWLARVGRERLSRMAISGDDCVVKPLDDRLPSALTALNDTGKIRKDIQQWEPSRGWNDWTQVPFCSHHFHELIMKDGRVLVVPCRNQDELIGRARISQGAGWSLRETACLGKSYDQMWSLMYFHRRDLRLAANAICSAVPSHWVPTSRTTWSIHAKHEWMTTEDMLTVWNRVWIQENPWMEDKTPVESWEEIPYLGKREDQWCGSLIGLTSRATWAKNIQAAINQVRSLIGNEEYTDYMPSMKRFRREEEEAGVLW
Chain of 5-hydroxytryptamine receptor 1E (P28566 whole entry): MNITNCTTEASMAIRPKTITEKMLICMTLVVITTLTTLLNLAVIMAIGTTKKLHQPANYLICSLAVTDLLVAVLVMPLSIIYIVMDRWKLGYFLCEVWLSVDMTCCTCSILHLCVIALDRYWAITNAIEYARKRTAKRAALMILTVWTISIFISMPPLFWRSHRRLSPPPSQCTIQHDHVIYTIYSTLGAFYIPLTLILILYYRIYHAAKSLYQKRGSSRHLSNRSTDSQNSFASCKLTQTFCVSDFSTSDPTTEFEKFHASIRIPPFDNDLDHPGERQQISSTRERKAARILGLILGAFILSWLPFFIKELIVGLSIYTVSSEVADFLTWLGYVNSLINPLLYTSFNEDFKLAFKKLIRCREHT
Chain of Neuropeptide Y receptor type 1 (P25929 whole entry): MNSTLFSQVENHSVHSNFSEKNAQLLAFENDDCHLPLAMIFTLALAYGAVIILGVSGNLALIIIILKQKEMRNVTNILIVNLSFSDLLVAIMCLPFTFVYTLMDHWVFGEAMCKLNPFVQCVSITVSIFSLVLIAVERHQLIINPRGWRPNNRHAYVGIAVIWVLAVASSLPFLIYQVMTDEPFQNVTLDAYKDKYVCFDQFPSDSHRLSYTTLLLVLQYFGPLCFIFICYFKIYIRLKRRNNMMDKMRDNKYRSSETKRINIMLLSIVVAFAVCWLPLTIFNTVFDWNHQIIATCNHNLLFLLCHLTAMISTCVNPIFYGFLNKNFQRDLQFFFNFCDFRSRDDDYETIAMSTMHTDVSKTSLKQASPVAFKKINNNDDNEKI
Chain of Sphingosine 1-phosphate receptor 1 (P21453 whole entry): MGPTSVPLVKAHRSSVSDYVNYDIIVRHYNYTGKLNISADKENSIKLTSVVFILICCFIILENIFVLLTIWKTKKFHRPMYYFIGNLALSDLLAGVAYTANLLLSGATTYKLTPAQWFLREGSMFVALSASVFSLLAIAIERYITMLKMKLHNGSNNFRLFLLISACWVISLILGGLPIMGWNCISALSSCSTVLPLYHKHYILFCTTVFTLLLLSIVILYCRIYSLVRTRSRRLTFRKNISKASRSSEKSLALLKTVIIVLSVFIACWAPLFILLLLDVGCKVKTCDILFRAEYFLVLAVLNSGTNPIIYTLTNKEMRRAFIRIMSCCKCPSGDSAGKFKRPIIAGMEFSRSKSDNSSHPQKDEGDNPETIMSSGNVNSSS
Chain of Sphingosine 1-phosphate receptor 3 (Q99500 whole entry): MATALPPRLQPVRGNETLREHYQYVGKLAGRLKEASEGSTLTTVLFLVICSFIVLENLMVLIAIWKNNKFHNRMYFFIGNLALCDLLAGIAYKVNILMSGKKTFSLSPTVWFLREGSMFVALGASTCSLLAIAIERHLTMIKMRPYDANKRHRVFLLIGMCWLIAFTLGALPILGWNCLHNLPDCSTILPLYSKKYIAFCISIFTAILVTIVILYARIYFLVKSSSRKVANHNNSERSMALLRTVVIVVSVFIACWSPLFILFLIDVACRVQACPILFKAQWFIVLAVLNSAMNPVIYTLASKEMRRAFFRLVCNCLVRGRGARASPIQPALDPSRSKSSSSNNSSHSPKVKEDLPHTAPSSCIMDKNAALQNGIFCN
Chain of Sphingosine 1-phosphate receptor 2 (O95136 whole entry): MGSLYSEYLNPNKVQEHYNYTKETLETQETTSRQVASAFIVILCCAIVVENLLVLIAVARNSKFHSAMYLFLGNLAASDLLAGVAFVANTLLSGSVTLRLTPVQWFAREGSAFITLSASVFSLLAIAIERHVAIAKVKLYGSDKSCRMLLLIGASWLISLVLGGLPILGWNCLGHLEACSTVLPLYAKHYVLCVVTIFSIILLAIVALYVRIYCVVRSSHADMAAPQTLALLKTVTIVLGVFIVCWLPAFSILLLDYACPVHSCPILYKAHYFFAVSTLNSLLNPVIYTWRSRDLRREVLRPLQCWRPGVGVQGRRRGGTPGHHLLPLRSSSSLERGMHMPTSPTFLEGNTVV
Chain of Neuropeptide Y receptor type 2 (P49146 whole entry): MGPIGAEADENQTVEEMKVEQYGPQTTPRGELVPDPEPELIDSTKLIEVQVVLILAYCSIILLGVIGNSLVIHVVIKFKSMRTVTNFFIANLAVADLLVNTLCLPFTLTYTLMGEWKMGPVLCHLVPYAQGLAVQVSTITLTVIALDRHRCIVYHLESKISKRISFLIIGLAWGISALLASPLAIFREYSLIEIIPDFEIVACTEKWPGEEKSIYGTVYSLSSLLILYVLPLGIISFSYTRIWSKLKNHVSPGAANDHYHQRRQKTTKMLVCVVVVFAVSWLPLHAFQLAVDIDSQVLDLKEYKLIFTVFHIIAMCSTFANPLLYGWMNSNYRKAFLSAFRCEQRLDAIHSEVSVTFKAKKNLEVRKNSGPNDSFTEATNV

A word on the IC50: it is the point on the concentration scale where inhibition reaches its midpoint. For `CCCn1nc2ccccc2c1P(=O)(N1CCOCC1)N1CCOCC1`, the IC50 in assay [1] and in [2] was > 50 µM (not active) in each case.

Broadly, the CC50 is the concentration at which the toxic effect on the cells reaches its halfway point. `Cc1ccc2c(c1)c(=O)c1c3n2CCN(C(=O)CCl)C3CC1` (configuration not stated): the IC50 at Bcl-2-like protein 10 was 11.4 µM (active); in [3] it was 14.2 µM (active); on Caspase-3, 14 µM (active); in assay [4] it was 8.69 µM (active); at Genome polyprotein, > 100 µM (active); in assay [6], 23.9 µM (active). The IC50 against Estrogen receptor beta [7] is 0.348 µM (not active); on Estrogen receptor beta [8], 8.75 µM (active); in assay [9], > 100 µM (active). Also, the CC50 in assay [5] is 10.9 µM (active); in the assay on Vero, 13.1 µM (active).

As usually defined, the EC50 is the concentration needed to bring the measured effect to its halfway point. For `CS(=O)(=O)c1nc(-c2cccs2)cc(C(F)(F)F)n1`, the EC50 was 3.19 µM (active) in assay [10]; 2.66 µM (active) in assay [12]; 2.73 µM (active) in assay [13]; 4.62 µM (inconclusive) in assay [14]; 2.57 µM (active) in assay [15]; > 38 µM (not active) in assay [16]. Further, the IC50 in assay [11] is 0.989 µM (active); in assay [17] it was 22.9 µM (not active).

`C=CCN(CC=C)C(=S)NC(=O)Cc1cccc2ccccc12`: the IC50 in assay [18] is 31.6 µM (active).

As for `Cc1noc(C)c1C(=O)OCC(=O)c1cc(C)n(Cc2ccccc2)c1C`, the EC50 in assay [19] is listed as > 30 µM (not active).

Consider `O=C(CN(Cc1ccc2c(c1)OCO2)C(=O)CSc1nc2ccccc2o1)NC1CCCCC1`, for which the IC50 in [20] is 8.58 µM (active); in assay [21], 13.7 µM (not active).

Regarding `Cc1ccc(-c2nnc(S)n2/N=C/C=C/c2ccccc2[N+](=O)[O-])cc1`, the IC50 at Bcl-2-like protein 10 is > 100 µM (inactive). Also, the EC50 at Estrogen receptor is 6.52 µM (active).
